In assay [1] the test system is gastric secretion. The experiment in a line: Inhibition of Gastric Secretion, pylorus-ligated rats (Experiment 2). The format is in vivo, Sprague-Dawley rats. As for the experimental part:
In accordance with the method disclosed in Shay, H., et al., Gastroenterology 5, 43-61(1945), Experiment 2 was carried out.
Sprague-Dawley rats having a body weight of 170±10 g were divided into 3 groups(n=5) and deprived of food for 24 hours before the experiment with free access to water. Under ether anesthesia, the abdomen was incised, and the pylorus was ligated. As a comparative group, Group 1 was administered intraduodenally in a volume of 0.5 ml/200 g of 30% aqueous polyethylene glycol 400 solution. Groups 2 and 3 were administered intraduodenally with the compound of Example 34 and omeprazole, respectively, each of which was suspended in 30% aqueous polyethylene glycol 400 solution at a concentration of 20 mg/kg. After closing the abdominal cavity, the rats were placed for 5 hours and then killed by cervical dislocation. The stomach was extracted to obtain gastric juice.
The gastric juice was centrifuged at 1,000 g to remove precipitates. The amount and acidity of the gastric juice were measured. Relative volumes, relative acid concentrations and relative acid outputs of the test compounds were calculated from equations(I), (II) and (III) and the results are shown in Table 2.
(I) = the average amount of gastric juice of Group 1 - the
average amount of gastric juice of Group 2)/(the average
amount of gastric juice of Group 1 - the average amount
of gastric juice of Group 3)
Relative acid concentration
(II) = (the average acidity of Group 1 - the average
acidity of Group 2)/(the average acidity of Group 1 - the average
(III) = (the total amount of acid output of Group 1 - the
total amount of acid output of Group 2)/(the total amount of acid
output of Group 1 - the total amount of acid output of Group

Assay [2] addresses T1, Proton Pump (H^+ /K^+ ATPase) (Oryctolagus cuniculus, UniProt P27112).
T1 construct: The microsomes thus obtained were used as an enzyme source of the in vitro enzyme reaction study of proton pump; from tissue; host or cells: rabbit stomach, mucosal scrapings, microsomes (180,000 g pellet)
Nature of the assay: Inhibition of Proton Pump (H+/K+ ATPase) Activity, in vitro enzyme reaction (Experiment 1). The format is biochemical, New Zealand white rabbit. The settings on record: for Effect ratio: IC50 of Omeprazole / IC50 of test compound; for IC50: K+-stimulated H+/K+ ATPase activity, rabbit gastric microsomes, pH 7.2, 37° C., 15 min prereaction, 30 min reaction, read-out: IC50 of test compound, inhibition (50%) of the proton pump activity. As for the experimental part:
A New Zealand white rabbit was killed by blowing its head and the stomach was taken out. The contents of the stomach were removed and the stomach walls were washed with was saline. The inner wall of the stomach was scratched out with a slide glass and the cells thus obtained were homogenized in 0.25M sucrose buffer by means of a Teflon-glass homogenizer. The homogenous solution was centrifuged at 10,000 g for 10 minutes and the supernatant was further centrifuged at 20,000 g for 20 minutes. The supernatant thus obtained was centrifuged at an ultra-high speed of 180,000 g for 1 hour. The pellets precipitated were collected by discarding the supernatant and suspended in 50 mM Tris-HCl buffer having pH 7.2. The suspension was dialyzed twice with the same buffer(of 1,000 times volume) for 3 hours and stored into liquid nitrogen.
The above centrifugation and dialysis were carried out at 4° C. The microsomes thus obtained were used as an enzyme source of the in vitro enzyme reaction study of proton pump.
The inhibitory effects of proton pump activity by the compounds of the present invention were measured by the in vitro enzyme reaction study. The proton pump activity stimulated by Mg^++ was used as a negative comparative group, and the activity stimulated by Mg^++ and K^+ was used as a positive comparative group. The comparative compound was omeprazole.
Test tubes were divided into 4 groups: Group 1 as negative comparative group(n=3), Group 2 as positive comparative group(n=3), Group 3(n=5) to be administered with the compound of the present invention and Group 4(n=5) to be administered with the comparative compound. The inhibitory effects of proton pump activity of Groups 3 and 4 were measured by employing the compound prepared in Example 34 and omeprazole, respectively, each of which was dissolved in dimethylsulfoxide at 5 different concentrations.
To each of Groups 1, 2, 3 and 4, were added 0.1 ml of magnesium chloride(40 mM) dissolved in 50 mM Tris-HCl buffer (pH 7.2) and […] of the enzyme source prepared in Experiment 1-1. Then, 0.1 ml of potassium chloride(500 mM) and 0.1 ml of ammonium chloride(100 mM) dissolved in 50 mM Tris-HCl buffer(pH 7.2) were added to all groups except for Group 1.
0.1 ml of dimethylsulfoxide was added to each of Groups 1 and 2; and to Group 3 was added 0.01 ml of the solution in which the compound prepared in Example 34 was dissolved in dimethylsulfoxide at 5 different concentrations. To Group 4, 0.01 ml of the solution prepared by dissolving omprazole in dimethylsulfoxide at 5 different concentrations(37.6, 21.4, 12.2, 7.0 and 4.0 μM) was added. 50 mM Tris-HCl buffer was added thereto so as to make the total volume 0.4 ml.
Thereafter, the test tubes of each Group were placed at 37° C. for 15 minutes for the prereaction. 0.1 ml of ATP solution(33.3 mM), which was prepared by adding Tris-ATP 50 mM to Tris-HCl buffer having pH 7.2, was added until the reaction volume became 0.5 ml. The final concentrations of MgCl2, KCl, NH4 Cl, ATP, enzyme and Tris-HCl were 8 mM, 100 mM, 20 mM, 6.7 mM, 100μg/ml and 50 mM, respectively. After the reaction was carried out at 37° C. for 30 minutes, 25% cold trichloroacetic acid was added to terminate the enzyme reaction. The released inorganic phosphate was measured by an automatic analyzer(SBA 300, Gilford).
The difference between Group 1 and Group 2 represents the proton pump activity activated by K^+ only. The inhibition percentages of Groups 3 and 4 were calculated from Litchfield-wilcoxon equation[see J. Pharmacol. Exptl. Ther. 96, 99(1949)]. The concentrations of the test compounds which inhibit 50% of the proton pump activity are represented as IC50 in Table 1.

The mark [3] stands for this setting: relative to omeprazole (equation III), 20 mg/kg intraduodenally, pylorus-ligated rats, 5 hours.

Where a name gives a salt, the structure may show the parent alone.

T1 sequence (P27112 whole entry): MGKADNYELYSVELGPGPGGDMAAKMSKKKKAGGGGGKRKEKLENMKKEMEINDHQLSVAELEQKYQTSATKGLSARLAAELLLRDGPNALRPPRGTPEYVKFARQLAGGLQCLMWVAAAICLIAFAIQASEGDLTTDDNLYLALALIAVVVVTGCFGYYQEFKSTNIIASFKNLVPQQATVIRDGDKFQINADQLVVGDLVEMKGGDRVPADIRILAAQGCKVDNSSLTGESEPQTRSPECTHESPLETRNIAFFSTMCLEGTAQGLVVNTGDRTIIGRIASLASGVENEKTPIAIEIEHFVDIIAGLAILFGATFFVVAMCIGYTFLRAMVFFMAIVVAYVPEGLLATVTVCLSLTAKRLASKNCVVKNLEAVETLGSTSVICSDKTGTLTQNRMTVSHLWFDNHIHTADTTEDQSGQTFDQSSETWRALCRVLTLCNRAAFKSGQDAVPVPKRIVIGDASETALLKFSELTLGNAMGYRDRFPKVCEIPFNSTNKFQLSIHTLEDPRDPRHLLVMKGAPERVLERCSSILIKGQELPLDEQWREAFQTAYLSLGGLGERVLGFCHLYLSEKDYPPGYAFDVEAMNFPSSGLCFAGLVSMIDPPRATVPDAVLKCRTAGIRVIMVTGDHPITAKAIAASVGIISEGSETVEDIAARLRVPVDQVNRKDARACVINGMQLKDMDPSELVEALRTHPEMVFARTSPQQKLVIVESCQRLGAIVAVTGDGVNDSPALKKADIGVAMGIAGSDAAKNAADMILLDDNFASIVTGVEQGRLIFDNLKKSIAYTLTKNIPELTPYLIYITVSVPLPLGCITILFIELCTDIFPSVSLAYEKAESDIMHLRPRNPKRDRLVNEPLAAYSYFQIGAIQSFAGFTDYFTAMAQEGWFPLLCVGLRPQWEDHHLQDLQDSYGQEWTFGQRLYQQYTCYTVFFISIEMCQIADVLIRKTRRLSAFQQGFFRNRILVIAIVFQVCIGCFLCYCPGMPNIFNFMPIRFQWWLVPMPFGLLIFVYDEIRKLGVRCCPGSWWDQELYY
T1 sequence (P18597 whole entry partner): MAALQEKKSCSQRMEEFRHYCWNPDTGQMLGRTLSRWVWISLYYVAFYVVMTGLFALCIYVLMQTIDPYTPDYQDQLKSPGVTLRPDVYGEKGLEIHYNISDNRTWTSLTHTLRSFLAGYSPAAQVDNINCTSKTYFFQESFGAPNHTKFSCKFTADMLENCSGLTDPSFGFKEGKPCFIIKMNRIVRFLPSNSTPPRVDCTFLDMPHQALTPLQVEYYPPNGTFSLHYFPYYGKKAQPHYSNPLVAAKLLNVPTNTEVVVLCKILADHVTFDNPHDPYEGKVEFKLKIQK

In the case of `COc1cccc2c(N3CCc4ccccc4[C@@H]3C)nc(Nc3ccc(F)cc3C)nc12.Cl` [Example 36, (S)-8-Methoxy-2-(4Fluoro-2-Methylphenylamino)-4-(1-Methyl-1,2,3,4-Tetrahydroisoquinoline-2-Yl)Quinazoline Hydrochloride], the “Relative Acid Output” value in assay [1] (setting [3]) was found to be 0.67. In assay [2], the Effect ratio is recorded as 1.28 and the IC50 – broadly, the concentration that inhibits the measured activity by half – came to 4 µM.

With `Cc1cc(F)ccc1Nc1nc(N2CCc3ccccc3C2C)c2cccc(OCCO)c2n1` (stereo not drawn) [Example 37, 8-(2-Hydroxyethyloxy)-2-(4-Fluoro-2-Methylphenylamino)-4-(1-Methyl-1,2,3,4-Tetrahydroisoquinoline-2-Yl)Quinazoline], the “Relative Acid Output” value in assay [1] (setting [3]) was determined as 0.37. In addition, in assay [2], the Effect ratio is ~ 0.60 and the IC50 is around 12.5 µM.

On to `CCOc1cccc2c(N3CCc4ccccc4C3C)nc(Nc3ccc(F)cc3C)nc12.Cl` (stereo not drawn) [Example 38, 2-(4-Fluoro-2-Methylphenyl-Amino)-8-Ethoxy-4-(1-Methyl-1,2,3,4-Tetrahydroisoquinoline-2-Yl)Quinazoline Hydrochloride], for which the “Relative Acid Output” value in assay [1] (setting [3]) turned out to be 0.83. In addition, in assay [2], the Effect ratio was 1.67 and the IC50 is 1.2 µM.

With `CSCOc1cccc2c(N3CCc4ccccc4C3C)nc(Nc3ccc(F)cc3C)nc12` (stereo not drawn) [Example 39, 2-(4-Fluoro-2-Methylphenyl-Amino-8-(Methylthiomethyloxy)-4-(1-Methyl-1,2,3,4-Tetrahydroisoquinoline-2-Yl)Quinazoline Hydrochloride], in assay [1] (setting [3]), the “Relative Acid Output” value was 0.57. In assay [2], the Effect ratio turned out to be 0.70 and the IC50 amounted to 4 µM.

Take `COc1cccc2c(N3CCc4ccccc4C3C)nc(N(C)c3ccccc3)nc12.Cl` (stereo not drawn) [Example 40, 8-Methoxy-2-(N-Methylphenyl-Amino)-4-(1-Methyl-1,2,3,4-Tetrahydroisoquinoline-2-Yl) Quinazoline Hydrochloride]: the “Relative Acid Output” value in assay [1] (setting [3]) was determined as 0.82. In assay [2], the Effect ratio was found to be 8.15 and the IC50 is 1.3 µM.

`COc1cccc2c(N3CCc4ccccc4C3C)nc(N(C)c3ccc(F)cc3)nc12.Cl` (stereo not drawn) [Example 41, 8-Methoxy-2-(4-Fluoro-N-methyl-Phenylamino)-4-(1-Methyl-1,2,3,4-Tetrahydroisoquinoline-2-Yl)Quinazoline Hydrochloride]: in assay [1] (setting [3]), the “Relative Acid Output” value amounted to 0.48. Further, in assay [2], the Effect ratio was found to be 2.00 and the IC50 was 3.8 µM.

On to `COc1cccc2c(N3CCc4ccccc4C3C(F)(F)F)nc(Nc3ccc(F)cc3C)nc12.Cl` (stereo not drawn) [Example 42, 2-(4-Fluoro-2-Methylphenyl-Amino)-8-Methoxy-4-(1-Trifluoromethyl-1,2,3,4-Tetrahydroisoquinoline-2-Yl)Quinazoline Hydrochloride], for which, in assay [1] (setting [3]), the “Relative Acid Output” value is recorded as 0.42. For the same molecule, in assay [2], the Effect ratio is listed as below 0.18 and the IC50 worked out at 12.5 µM.

Take `COc1cccc2c(N3CCc4ccccc4C3CF)nc(Nc3ccc(F)cc3)nc12.Cl` (stereo not drawn) [Example 43, 2-(4-Fluorophenylamino)-8-Methoxy-4-(1-Fluoromethyl-1,2,3,4-Tetrahydroisoquinoline-2-Yl)Quinazoline Hydrochloride]: the “Relative Acid Output” value in assay [1] (setting [3]) was 0.76. Further, in assay [2], the Effect ratio is recorded as below 0.97 and the IC50 was above 12.5 µM.

For the molecule `COc1cccc2c(N3CCc4ccccc4C3CF)nc(Nc3ccc(F)cc3C)nc12.Cl` (stereo not drawn) [Example 44, 2-(4-Fluoro-2-Methylphenyl-Amino)-8-Methoxy-4-(1-Fluoromethyl-1,2,3,4-Tetrahydroisoquinoline-2-Yl)Quinazoline Hydrochloride], the “Relative Acid Output” value in assay [1] (setting [3]) was found to be 0.75. Also, in assay [2], the Effect ratio is ~ 0.97 and the IC50 was around 12.5 µM.

As for `CCC1c2ccccc2CCN1c1nc(Nc2ccc(F)cc2)nc2c(OC)cccc12.Cl` (stereo not drawn) [Example 45, 8-Methoxy-2-(4-Fluorophenyl-Amino)-4-(1-Ethyl-1,2,3,4-Tetrahydroisoquinoline-2-Yl) Quinazoline Hydrochloride], the “Relative Acid Output” value in assay [1] (intraduodenal, 20 mg/kg, 5 h) is listed as -0.06. Besides, in assay [2], the Effect ratio is listed as 0.46 and the IC50 was 8.9 µM.

On to `CCC1c2ccccc2CCN1c1nc(Nc2ccc(F)cc2C)nc2c(OC)cccc12.Cl` (stereo not drawn) [Example 46, 8-Methoxy-2-(2-Methyl-4-Fluoro-Phenylamino)-4-(1-Ethyl-1,2,3,4-Tetrahydroisoquinoline-2-Yl)Quinazoline Hydrochloride], for which the “Relative Acid Output” value in assay [1] (setting [3]) was found to be 0.11. In addition, in assay [2], the Effect ratio is on record as 0.68 and the IC50 was around 6 µM.

Regarding `COc1cccc2c(N3CCc4ccccc4C3C3CC3)nc(Nc3ccc(F)cc3C)nc12.Cl` (stereo not drawn) [Example 47, 2-(4-Fluoro-2-Methylphenyl-Amino)-8-Methoxy-4-(1-cyclopropyl-1,2,3,4-Tetrahydroisoquinoline-2-Yl)Quinazoline Hydrochloride], the “Relative Acid Output” value in assay [1] (setting [3]) came out at 0.33. Also, in assay [2], the Effect ratio is recorded as 0.49 and the IC50 is around 25 µM.

For the molecule `COc1cccc2c(N3Cc4ccccc4CC3C)nc(Nc3ccc(F)cc3)nc12.Cl` (stereo not drawn) [Example 48, 2-(4-Fluorophenylamino)-8-Methoxy-4-(3-Methyl-1,2,3,4-Tetrahydroisoquinoline-2-Yl) Quinazoline Hydrochloride], in assay [1] (setting [3]), the “Relative Acid Output” value is on record as 0.76. Moreover, in assay [2], the Effect ratio was ~ 0.25 and the IC50 is around 25 µM.

Take `COc1cccc2c(N3Cc4ccccc4CC3C)nc(Nc3ccc(F)cc3C)nc12.Cl` (stereo not drawn) [Example 49, 2-(4-Fluoro-2-Methylphenyl-Amino)-8-Methoxy-4-(3-Methyl-1,2,3,4-Tetrahydroisoquinoline-2-Yl)Quinazoline Hydrochloride]: the “Relative Acid Output” value in assay [1] (setting [3]) turned out to be 0.42. Moreover, in assay [2], the Effect ratio was above 0.25 and the IC50 is above 25 µM.

Consider `COc1cccc2c(N3CCc4ccccc4C3(C)C)nc(Nc3ccc(F)cc3)nc12.Cl` [Example 50, 2-(4-Fluorophenylamino)-8-Methoxy-4-(1,1-Dimethyl-1,2,3,4-Tetrahydroisoquinoline-2-Yl)Quinazoline Hydrochloride], for which, in assay [1] (setting [3]), the “Relative Acid Output” value was 0.82. For the same molecule, in assay [2], the Effect ratio is 1.22 and the IC50 is 6.05 µM.

Values taken from US5686458A, “Quinazoline deriviates for treating peptic ulcer” (Yuhan Corporation, priority 1992, dated 1997).
